From US10857110B2, “Antibacterial compounds” (CONSEJO NACIONAL DE INVESTIGACIONES CIENTÍFICAS Y TÉCNICAS …, priority 2016, dated 2020)
Values after ≈ are worked out from the molar mass of the structure shown.

Key:
Assay in all cases: MIC/MBC antibiotic sensitivity (CLSI)
[1] = system: Achromobacter xylosaxidans (HNA001); format: cell-based, Achromobacter xylosoxidans
Description: (§1) The new compounds of the invention were synthesized following the general method of preparation (Tetrahedron, 2001, 57, 1671-1675), from the reaction between an intermediary compound of the acyl thiourea and HgCl2 in presence of trimethylamine. The products were adequately characterized regarding its chemistry. The antibacterial activity of the new compounds was assayed against two Gram-positive reference strains: Staphylococcus aureus (ATCC6538) and Bacillus cereus (ATCC10876), a fermenting Gram-negative strain: Escherichia coli (ATCC25922), and 26 non-fermenting Gram-negative isolates, including 3 reference strains: Pseudomonas aeruginosa (PAO1), Bordetella bronchiseptica (9.73H+), and Inquilinus limosus (DSM16000), and 23 isolates recovered from patients suffering from cystic fibrosis, including one Achromobacter xylosoxidans isolate, and 22 isolates belonging to the Burkholderia cepacia complex. The later were selected because they presented resistance to a high number of antimicrobial compounds, among a panel of 125 clinical isolates previously analyzed for its resistance against 17 antimicrobial compounds (1,2). The antibiotic sensitivity studies were performed by applying two quantitative methods which allow to determine the minimum inhibitory concentration (MIC) and the minimum bactericidal concentration (MBC).
(§2) The compounds obtained in Examples 1 and 2 were assayed against 23 isolates recovered from the sputum of patients suffering from cystic fibrosis being treated at the Sor Maria Ludovica Children Hospital (La Plata, Buenos Aires, Argentina). Nineteen of these isolates were selected for being highly resistant to most of the antimicrobial agents of clinical use from a panel of 125 isolates previously characterized in Martina et al. (1). Reference strains were also included: Gram (+) bacteria: B. cereus and S. aureus, fermenting Gram (−) bacteria: E. coli, and non-fermenting Gram (−) bacteria: Inquilinus limosus (DSM16000), B. bronchiseptica, and Pseudomonas aeruginosa (PAO1). The antibiotic sensitivity studies were performed applying two quantitative methods which allow to determine the minimum inhibitory concentration (MIC) and the minimum bactericidal concentration (MBC) according to the criteria established by the Clinical and Laboratory Standards Institute (CLSI) (4). For comparative purposes, three antibiotics commonly used in the treatment of pulmonary infections in cystic fibrosis patients were included in the study: tobramycin, ceftazidime and meropenem.

B. cenacepacia (FQC2524) = format: cell-based, B. cenocepacia; conditions: Burkholderia cenocepacia, Meropenem, CLSI criteria, read-out: MIC (R/I/S category)
Description: as §1, §2

B. contaminans (HNBC001) = format: cell-based; conditions: Meropenem, CLSI criteria, read-out: MIC (R/I/S category)
Description: as §1, §2

[2] = system: Burkholderia seminalis (CBC 040); format: cell-based; conditions: Burkholderia seminalis; Meropenem, CLSI criteria; B. seminalis (CBC 040); read-out: MIC (R/I/S category)
Description: as §1, §2

[3] = system: Burkholderia cenocepacia (CBC 036); format: cell-based; conditions: Burkholderia cenocepacia; Meropenem, CLSI criteria; B. cenocepacia (CBC 036); read-out: MIC (R/I/S category)
Description: as §1, §2

[4] = system: Burkholderia cenocepacia (CBC 023); format: cell-based; conditions: Burkholderia cenocepacia; Meropenem, CLSI criteria; B. cenocepacia (CBC 023); read-out: MIC (R/I/S category)
Description: as §1, §2

[5] = system: Burkholderia cenocepacia (CBC 024); format: cell-based; conditions: Burkholderia cenocepacia; Meropenem, CLSI criteria; B. cenocepacia (CBC 024); read-out: MIC (R/I/S category)
Description: as §1, §2

[6] = system: Burkholderia cenocepacia (CBC 031); format: cell-based; conditions: Burkholderia cenocepacia; Meropenem, CLSI criteria; B. cenocepacia (CBC 031); read-out: MIC (R/I/S category)
Description: as §1, §2

[7] = system: Burkholderia seminalis (CBC 042); format: cell-based; conditions: Burkholderia seminalis; Meropenem, CLSI criteria; B. seminalis (CBC 042); read-out: MIC (R/I/S category)
Description: as §1, §2

[8] = system: Pseudomonas aeruginosa (PAO1); format: cell-based; conditions: Pseudomonas aeruginosa, P. aeruginosa (PAO1)
Description: as §1, §2

[9] = system: Burkholderia cepacia (CBC 010); format: cell-based
Description: as §1, §2

[10] = system: Burkholderia cenocepacia (CBC 029); format: cell-based; conditions: Burkholderia cenocepacia; Meropenem, CLSI criteria; B. cenocepacia (CBC 029); read-out: MIC (R/I/S category)
Description: as §1, §2

[11] = system: Burkholderia multivorans (CBC 018); format: cell-based
Description: as §1, §2

[12] = system: Burkholderia multivorans (CBC 021); format: cell-based
Description: as §1, §2

[13] = system: Burkholderia cenocepacia (CBC 035); format: cell-based
Description: as §1, §2

[14] = system: Staphylococcus aureus (ATCC6538); format: cell-based; conditions: Staphylococcus aureus, S. aureus (ATCC6538)
Description: as §1, §2

[15] = system: Burkholderia multivorans (CBC 019); format: cell-based
Description: as §1, §2

[16] = system: Burkholderia multivorans (CBC 022); format: cell-based
Description: as §1, §2

[17] = system: Bacillus cereus (ATCC10876); format: cell-based
Description: as §1, §2

[18] = system: Inquilinus limosus (DSM16000); format: cell-based
Description: as §1, §2

[19] = system: Burkholderia cenocepacia (HE001); format: cell-based; conditions: Burkholderia cenocepacia; Meropenem, CLSI criteria; B. cenocepacia (HE001); read-out: MIC (R/I/S category)
Description: as §1, §2

[20] = system: Escherichia coli (ATCC25922); format: cell-based; conditions: Escherichia coli, E. coli (ATCC25922)
Description: as §1, §2

[21] = system: Burkholderia multivorans (CBC 020); format: cell-based
Description: as §1, §2

[22] = system: Burkholderia cepacia (CBC 011); format: cell-based
Description: as §1, §2

MIC ([1]; Achromobacter, Meropenem, CLSI criteria, A. xylosaxidans (HNA001), read-out: MIC (R/I/S category)): < 4 µg/mL
MIC (B. cenacepacia (FQC2524)): < 4 µg/mL
MIC (B. contaminans (HNBC001)): > 16 µg/mL
MIC [2]: > 16 µg/mL
MIC [3]: > 16 µg/mL
MIC [4]: > 16 µg/mL
MIC [5]: > 16 µg/mL
MIC [6]: > 16 µg/mL
MIC [7]: > 16 µg/mL
MIC ([8]; read-out: MIC): < 0.48 µg/mL
MIC ([9]; Burkholderia cepacia, Meropenem, CLSI criteria, B. cepacia (CBC 010), read-out: MIC (R/I/S category)): < 4 µg/mL
MIC [10]: > 16 µg/mL
MIC ([11]; Burkholderia multivorans, Meropenem, CLSI criteria, B. multivorans (CBC 018), read-out: MIC (R/I/S category)): < 4 µg/mL
MIC ([12]; Burkholderia multivorans, Meropenem, CLSI criteria, B. multivorans (CBC 021), read-out: MIC (R/I/S category)): < 4 µg/mL
MIC ([13]; Burkholderia cenocepacia, Meropenem, CLSI criteria, B. cenocepacia (CBC 035), read-out: MIC (R/I/S category)): < 4 µg/mL
MIC ([14]; read-out: MIC): < 0.48 µg/mL
MIC ([15]; Burkholderia multivorans, Meropenem, CLSI criteria, B. multivorans (CBC 019), read-out: MIC (R/I/S category)): < 4 µg/mL
MIC ([16]; Burkholderia multivorans, Meropenem, CLSI criteria, B. multivorans (CBC 022), read-out: MIC (R/I/S category)): < 4 µg/mL
MIC ([17]; read-out: MIC): < 0.48 µg/mL
MIC ([18]; read-out: MIC): < 0.48 µg/mL
MIC [19]: > 16 µg/mL
MIC ([20]; read-out: MIC): < 0.48 µg/mL
MIC ([21]; Burkholderia multivorans, Meropenem, CLSI criteria, B. multivorans (CBC 020), read-out: MIC (R/I/S category)): < 4 µg/mL
MIC ([22]; Burkholderia cepacia, Meropenem, CLSI criteria, B. cepacia (CBC 011), read-out: MIC (R/I/S category)): < 4 µg/mL
Compound: C[C@@H](O)[C@H]1C(=O)N2C(C(=O)O)=C(S[C@@H]3CN[C@H](C(=O)N(C)C)C3)[C@H](C)[C@H]12 [Meropenem, meropenem]
MBC ([1]; Achromobacter xylosaxidans (HNA001)): 7.81 µg/mL (≈ 20.4 µM)
MBC ([8]; read-out: MBC): < 0.48 µg/mL
MBC ([9]; Burkholderia cepacia (CBC 010)): 3.9 µg/mL (≈ 10.2 µM)
MBC ([11]; Burkholderia multivorans (CBC 018), read-out: MBC): 3.9 µg/mL (≈ 10.2 µM)
MBC ([12]; Burkholderia multivorans (CBC 021)): 7.81 µg/mL (≈ 20.4 µM)
MBC ([13]; Burkholderia cenocepacia (CBC 035), read-out: MBC): 15.6 µg/mL (≈ 40.7 µM)
MBC ([14]; read-out: MBC): < 0.48 µg/mL
MBC ([15]; Burkholderia multivorans (CBC 019)): 7.81 µg/mL (≈ 20.4 µM)
MBC ([16]; Burkholderia multivorans (CBC 022)): 7.81 µg/mL (≈ 20.4 µM)
MBC ([17]; read-out: MBC): < 0.48 µg/mL
MBC [18]: < 0.48 µg/mL
MBC ([20]; read-out: MBC): < 0.48 µg/mL
MBC ([21]; Burkholderia multivorans (CBC 020)): 31.2 µg/mL (≈ 81.5 µM)
MBC ([22]; Burkholderia cepacia (CBC 011)): > 62.5 µg/mL
